The text below walks through data of patent publication US10130636B2, “High dosage strength tablets of rucaparib” (Clovis Oncology, Inc., priority 2014, dated 2018).

Like-named read-outs stand apart in the source and are kept apart here.

Data set [1] is described as follows: Hygroscopicity of rucaparib salts. Format: physicochemical. The following applies: compared to other salts of rucaparib.
The conditions of data set [2]: as stated in U.S. Pat. No. 8,754,072; compared to other salt forms; cited from earlier work.
Data set [3] in a line: CTC profiles (compressibility, tabletability, compactability) of rucaparib salt intra granular formulations. Format: physicochemical. The note with it: for formation of compacts: pure API without excipients, maleate also at 90% loading, 100 mg compacts. An excerpt: The most relevant and broadly accepted approach to assessing compression evaluation of different formulations (and different API salts) is by measuring the interrelationships of compression stress, solid fraction, and tensile strength using a compaction simulator. These parameters are related to each other in a set of relationships referred to as compressibility, tabletability, and compactability profiles (i.e., CTC Profiles) (Tye, Sun, Amidon, J. Pharm. Sci, 94: 465-472, (2005)). Focus was on the intra granular blend rather than the final blend because nearly all of the lead formulation is processed through dry granulation; only a small portion is extra granular. Additionally, the extra granular lubrication step at small scale is not representative of downstream pilot or commercial processing and risks masking intrinsic compressibility properties. For the provided lot of each salt form, formulations were evaluated at 100%, 90%, 75%, and 60% of the final tablet formulation (this correlates to 100%, 90.68%, 75.57%, and 60.45% intra granular components). CTC profiles for each API and formulation were determined by compressing (Texture Technologies model TA.XT Plus Texture Analyzer), in triplicate, 1⁄4'' round flat-faced 100 mg compacts using a linear sawtooth strain profile at 5 mm/sec velocity to four pre-programmed peak forces encompassing roller compaction and tableting compression stress ranges (e.g., up to 240 MPa). The compacts were then evaluated for physical dimensions, weight, and hardness. […] The maximum acceptable compression stress considered within normal ranges of a commercial rotary tablet press is approximately 250 MPa. Similarly, a typical target tensile strength for tablets is 2 MPa; such tablets generally have low friability, and are suitable for downstream handling and film coating. Thus, if a given formulation can be compressed to a tensile strength of 2 MPa at a compression stress of less than 250 MPa, it is considered to have acceptable compressibility.

[4] abbreviates: Drug Load 60%, Compression Stress 47.9 MPa.
Where [5] appears, read: Drug Load 60%, Compression Stress 80.3-80.4 MPa.
Setting [6] is: Drug Load 60%, Compression Stress 176.0-177.0 MPa.
[7] abbreviates: Drug Load 60%, Compression Stress 239.5-240.4 MPa.
The mark [8] stands for this setting: Drug Load 75%, Compression Stress 48.3-48.5 MPa.
Where [9] appears, read: Drug Load 75%, Compression Stress 80.5-80.8 MPa.
[10] abbreviates: Drug Load 75%, Compression Stress 176.8-177.8 MPa.
The mark [11] stands for this setting: Drug Load 75%, Compression Stress 240.1-240.7 MPa.

As for `CNCc1ccc(-c2[nH]c3cc(F)cc4c3c2CCNC4=O)cc1` [Camsylate, Rucaparib Camsylate], the hygroscopicity result in data set [1] was “low hygroscopicity”; in data set [2] it was “less hygroscopic”. For the same compound, the “Tensile Strength” value in data set [3] (setting [4]) is reported as 0.6 MPa; in data set [3] (setting [5]) it was 1.3 MPa; in data set [3] (setting [6]) it was 2.6 MPa; in data set [3] (setting [7]) it was 3.1 MPa; in data set [3] (setting [8]) it was 0.6 MPa; in data set [3] (setting [9]) it was 1.1 MPa. For the same compound, the “Tensile Strength” value in data set [3] (setting [10]) amounted to 2.3 MPa; in data set [3] (setting [11]), 2.8 MPa. Moreover, in data set [3], the formation of compacts entry is listed as “formed good compacts”.

Consider Rucaparib Maleate, for which the hygroscopicity result in data set [2] is listed as “less hygroscopic”. Further, in data set [3] (60 and 75% API loading), the “tabletability, fold lower than the camsylate salt” value is on record as 2-2.5 ×. For the same compound, the “Tensile Strength” value stood at 0.3 MPa in data set [3] (setting [4]); 0.6 MPa in data set [3] (setting [5]); 1.2 MPa in data set [3] (setting [6]); 1.4 MPa in data set [3] (setting [7]); 0.2 MPa in data set [3] (setting [8]); 0.4 MPa in data set [3] (setting [9]). For the same compound, the “Tensile Strength” value in data set [3] (setting [10]) and in data set [3] (setting [11]) was 0.8 MPa each time. Moreover, the “drug loading needed to obtain tablets with sufficient strength” value in data set [3] (estimated, target >70%) is given as below 50%. Besides, in data set [3], the formation of compacts result is listed as “not able to be formed”.
